Measured values taken from paper PMC12502564, “Evaluation of LLM-generated peptide as foundation template for discovery of effective encrypted AMPs against clinical superbugs” (Microbiology Spectrum, 2025).
No end group written: not given here.

Assays:
sheep red blood cells = experiment: Hemolysis test; type: cell-based; conditions: 4% sheep red blood cell suspension in PBS, 37°C, 1 h, OD 450 nm, log2-transformed
Method: Freshly collected sheep red blood cells, provided by Solarbio (Beijing, China), were washed three times with PBS to prepare a red blood cell suspension (2,000 rpm). Subsequently, the resulting red blood cells were suspended in 1 × PBS buffer and adjusted to a 4% red blood cell suspension. In a 96-well plate, perform twofold serial dilutions of the test peptides in 1 × PBS to final concentrations of 512, 256, 128, 64, 32, 16, 8, 4, 2, 1, 0.5, and 0.25 µg mL^−1 in each well. Use Triton X-100 as a positive control and 1 × PBS buffer as a negative control. Take 100 µL of red blood cell solution and 100 µL of peptide solutions with different concentration gradients and control solutions, add them to a new 96-well plate, and incubate at 37°C for 1 h. Subsequently, the 96-well plate was centrifuged at 4,000 rpm for 10 min, and the supernatant was collected into a 96-well plate for later use. Then the absorbance was measured at a wavelength of 450 nm using a microplate reader. All experiments were repeated in three parallel groups and averaged. The hemolysis rate was calculated by the following formula and the IC50 value of each AMPs was calculated by online tools: https://www.aatbio.com/tools/ic50-calculator.
(1) Hemolysis rate (%)=OD(AMP)− OD(PBS)/OD(TritonX−100)− OD(PBS)×100%

CRAB [1] = experiment: ROS accumulation assay (DCFH-DA); type: cell-based, carbapenem-resistant Acinetobacter baumannii; conditions: 10 µM DCFH-DA, 2 h incubation
Method: Bacteria in the logarithmic growth phase were prepared to OD600 = 0.5. Ten microliters of DCFH-DA was added to 190 µL of bacterial solution to a final concentration of 10 µM and incubated at 37°C for 30 min. After washing with PBS three times, 190 µL of probe-labeled bacterial cells were added to a 96-well plate, and 10 µL of the sample to be tested was added. After incubation for another 2 h, the fluorescence intensity was immediately measured using a microplate reader with an excitation wavelength of 488 nm and an emission wavelength of 525 nm. The antioxidant NAC (6 mM) was used as a control to neutralize the production of ROS.

CRAB [2] = experiment: Drug resistance assay, 20 passages; type: cell-based, carbapenem-resistant Acinetobacter baumannii; conditions: 20 passages at 0.5-fold MIC, n = 3
Method: Resistance development assays were performed following previous report ([43]). CRAB was cultured overnight at 37°C at 160 rpm in LB. In wells of a 96-well polypropylene flat-bottom plate, 5 µL of the overnight bacterial culture (10^7 CFU mL^−1) was added to 100 µL of peptides/antibiotic solutions (with final concentrations of 0.25 to 512 µg mL^−1) in MHB. Plates were incubated for 18 to 20 h at 37°C. The MIC, the lowest concentration of peptides/antibiotic that caused lack of visible bacterial growth, was determined for each bacterial species. Thereafter, 5 µL of the growth at the 0.5-fold MIC suspension (10^7 CFU mL^−1) was added to a fresh medium containing peptides/antibiotic, and these mixtures were incubated as described above. This was repeated for 20 passages. All experiments were performed in triplicate to ensure reliability.

MRSA 2210187 = type: cell-based, methicillin-resistant Staphylococcus aureus; conditions: 2210187
Method: The MIC of all peptides was determined using the microdilution broth method in a 96-well plate. Peptides were dissolved in the DMSO with an initial concentration of 12,800 µg mL^−1. And cells of eight strains were separately suspended in the MHB at a density of approximately 10^5 CFU mL^−1. In the first column of the 96-well plate, 16 µL of peptide and 184 µL of MHB were added to each well to achieve a final concentration of 1,024 µg mL^−1. One-hundred microliters of MHB was added to each of the remaining wells. Then the first column of liquid was mixed well and diluted to the 12th column using the twofold dilution method. One-hundred microliters of prepared bacterial solution was added to all wells, and the 96-well plate was incubated at 37°C for 18–24 h. The MIC was defined as the concentration of the peptide in the well just preceding the first well showing visible turbidity. All experiments were performed in triplicate to ensure reliability.

MRSA = experiment: MBC determination, MBC/MIC ratio; type: cell-based, methicillin-resistant Staphylococcus aureus; conditions: MBC/MIC ≤4 is considered bactericidal
Method: The MBC was determined using the microdilution broth method described above for MIC determination. After identifying the clear wells (no growth), 10 µL of the liquid from these wells was transferred and spread on a nutrient agar plate. The plate was incubated at 37°C for 18–24 h. […] The lowest concentration with no visible growth was considered the MBC.

Question: WLKRILKWIGNKLKW [PL-15] was tested. Which “log2IC50 (50% hemolytic concentration)” value (sheep red blood cells) did it give?
Answer: The value was no less than 3.

Question: What about the “ROS levels (DCF fluorescence)” value (CRAB [1]) of the same sequence?
Answer: The value was “concentration-dependent surge in ROS levels”.

Question: And the “MIC change after serial passaging” value (CRAB [2])?
Answer: Its value is “within a twofold range”.

Question: And the MIC (MRSA 2210187)?
Answer: The MIC was 2 µg/mL.

Question: What about the “bactericidal classification by MBC/MIC ratio” value (MRSA) of the same sequence?
Answer: The value was “bactericidal effects”.
